“Also recorded” adds a separate entry of the source.
What was measured:
[1] = Metabolic stability in rat liver microsomes; type: in vitro ADME
Protocol: page 15: SUPPORTING INFORMATION 3. Molecular Modeling A structure of PHD2 in complex with Fe and a 2OG competing inhibitor (PDB ID: 4KBZ) was obtained from PDB website. The structure files of protein and compounds for docking were prepared using the Discovery Studio (DS) 2020 software. A water molecule HOH624, conserved in the active binding site of PHD2, was retained during the docking. Residues of PHD2 around the native ligand […] Subsequently, the ligand was removed; the Fe (II) was retained during the docking. Compounds were docked into the binding sites using GOLD 5.1. Docking procedures were performed using the default setting with 100 genetic algorithm (GA) runs of ligands. […] The samples were centrifuged at 5000 rpm f or 10 min; the supernatants were then analyzed by HPLC. […] Subsequently, these samples were analyzed for reticulocytes in the center for new drug safety evaluation and research of China Pharmaceutical University (ADVIA 2120 hematology system). 5.2 In vivo EPO increased assay Plasma EPO was evaluated using the erythropoietin quantikine ELISA kit for mice (MEP00B). […] Plasma was collected by centrifugation at 3000 rpm, these plasmas were detected by E PO ELISA. […] The hemoglobin of samples was analyzed in the center for new drug safety evaluation and research at China Pharmaceutical University (ADVIA 2120 hematology system). […]

[2] = system: EPO gene expression in Hep3B cells; assay: RT-qPCR assay of EPO mRNA; type: cell-based, human; details: reference gene HPRT
[3] = Metabolic stability in mouse liver microsomes; type: in vitro ADME
ICR mice = assay: Subacute oral toxicity assay; type: in vivo
Protocol: 6. Subacute and acute oral toxicity assay
The experimental mice (SPF, ICR, male and female) were obtained from Nantong University (permit number: SCXK (Su) 2019-0001). All animal related experiments were conducted under China Pharmaceutical University guidelines (certification of using the housing facility for laboratory animals: SYXK (Su) 2018-0019) IACUC approved protocols in compliance with the guide for the care and use of laboratory animals (number: 202013705).
6.1 Subacute oral toxicity assay
ICR mice were divided into 8 groups (n = 6), including 15 mg·kg-1, 50 mg·kg-1, 100 mg·kg-1 and vehicle groups for males and females, respectively. […] The body weight of the mice was recorded. […]
Experimental mice were treated with 17 through oral administration once. Body weight and the heart, kidney, liver, spleen, and lung weight were recorded. Blood was collected, and the samples were analyzed by blood biochemistry assays (CRE, AST, ALT, BUN).
A solution of aldehyde B82 (60 μL, 0.5 M, DMSO-d6), 4-methoxyaniline (2 μL, 6.0 M, DMSO -d6), mesitylene (100 μL, 0.1 M, DMSO - d6), and acylhydrazide A3 (100 μL, 0.1 M, DMSO -d6) was added to a mixture of DMSO -d6 (188 μL) and FP buffer D 2O (50 μL), in a 5 mm NMR tube; following incubation at room temperature, the sample was evaluated by a Bruker AV-400 instrument. […]

[4] = pH 7.4, read-out: t1/2 in liver microsomes

With O=C(N/N=C/c1cccc(O)c1Cl)c1cnc(-c2cccnn2)[nH]c1=O [compound 17] as the molecule, how does the “compound present (remaining) in liver microsomes” value ([1]; after 50 min, 1 μM, 0.5 mg/mL) read?
Its value is > 80%.

What about the half-life at 1 μM [1, 4] of the same molecule?
Its half-life at 1 μM is > 1.67 h.

And the “EPO mRNA expression by RT-qPCR” value [2]?
Its value is “increases EPO mRNA in a concentration‐dependent manner with comparable efficiency to Roxadustat”.

What about the “compound present (remaining) in liver microsomes” value ([3]; after 50 min, 1 μM, 0.5 mg/mL) of the same molecule?
Its value is > 80%.

And the half-life at 1 μM [3, 4]?
The half-life at 1 μM was > 1.67 h.

What about the “H&E staining of major organs” value (ICR mice; 100 mg kg−1 oral, alternate days for two weeks) of the same molecule?
The value was “normal architecture comparable to the vehicle”.

What about the “subacute oral toxicity findings (behavior, body weight, organ/body weight ratio, BUN, ALT, AST, CRE)” value (ICR mice; oral, every other day for 14 days, 10 or 15, 50 and 100 mg kg−1) of the same molecule?
Its value is “no obvious abnormality; also recorded: did not exhibit any treatment-associated adverse effects”.
